Measurements taken from ChEMBL document CHEMBL4480401, “Determination of Ligand Binding Epitope Structures Using Polarization Transfer from Hyperpolarized Ligands” (J Med Chem, 2019).
Active and inactive are the calls of the source. No cut-off for these calls is given here.

Target: T1, Dihydrofolate reductase (Homo sapiens) (UniProt P00374)
T1 sequence (whole entry): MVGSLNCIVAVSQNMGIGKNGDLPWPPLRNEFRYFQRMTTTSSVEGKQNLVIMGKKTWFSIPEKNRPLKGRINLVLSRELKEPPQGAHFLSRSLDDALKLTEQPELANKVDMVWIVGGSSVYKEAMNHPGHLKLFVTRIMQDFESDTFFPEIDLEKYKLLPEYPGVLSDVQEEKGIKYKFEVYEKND
Assay: Binding affinity to [13C]-labeled DHFR DHFR (unknown origin) expressed in Escherichia coli BL21(DE3) using hyperpolarized compound sample at 1.6 mM by dissolution dynamic nuclear polarization and NMR spectroscopy

- Activity: Active
SMILES: Nc1nc(=O)c2nc(CNc3ccc(C(=O)N[C@@H](CCC(=O)O)C(=O)O)cc3)cnc2[nH]1
